Reference: patent US20220304985A1, “COMBINATION THERAPY FOR PROLIFERATIVE CONDITIONS” (Avexxin AS, priority 2019, published 2022)

What was measured:
MDA-MB-436 cells = assay: Resazurin viability assay, MDA-MB-436 cells (monotherapy and combination); type: cell-based, human; conditions: for IC50: MDA-MB-436, 72 h treatment, n = 3
Source text: The MDA-MB-436 cell line was from ATCC. The MDA-MB-436 cell line was established from a pleural effusion of a patient with metastatic breast adenocarcinoma. The cell line is of triple negative breast cancer, however the MDA-MB-436 cell line is classified as mesenchymal stem-like with high enrichment of genes for biological processes such as cell motility (Rho pathway), cellular differentiation and growth pathways (ALK pathway, TGF-β signalling and Wnt/β-catenin pathway). MDA-MB-436 cells were maintained in RPMI-1640 culturing media supplemented with 10% FBS, 0.3 mg/mL L-glutamine and 0.1 mg/mL gentamicin, 10 mcg/mL insulin and incubated in 37° C. humidified atmosphere. Sub-culture using trypsin-EDTA 0.5% every 3-4 days with cell density of 2-3 million cells in a T75 cm2 culturing flask to ensure actively proliferating cells. The MDA-MB-436 cells was seeded in 1×10^4 cells/well. After 24 h of cultivation, when the cells were ˜30-50% confluent, the medium was replaced with serum free growth medium without gentamycin to ensure synchronization of the cells and to increase cell sensitivity to treatment. The MDA-MB-436 cells were starved in starvation media with insulin. The medium was replaced with fresh serum free medium with or without compound 2, NVP-BKM120 (Cayman Chemicals, US). The cells were observed under the microscope to evaluate possible morphology changes and signs of stress before the addition of resazurin according to the manufacturer's instructions (RnD Systems, UK). MDA-MB-436 cells were incubated for 72 h. Resazurin was metabolized for 1-2 h (37° C., 5% CO2) before fluorescence was read at 544 nm excitation and 590 nm emission wavelength (BioTek Synergy HT). The experiments were performed in series of eight wells per treatment and repeated 2-3 times. […] Statistical significance between treatments were determined using Welch's ANOVA with Tamhane's T2 correction for multiple comparisons, p<0.05 was considered statistically significant.

CCRF-CEM cells = assay: Resazurin viability assay, CCRF-CEM cells (combination, Bliss Independence CI); type: cell-based, human; conditions: 0.5 μm of BKM120 as used in combination, FIG. 1, CCRF-CEM
Procedure: The CCRF-CEM (ATCC CCL-119) cell line is derived from T lymphoblasts from peripheral blood of a child with acute leukaemia. The cells were grown according to the recommendations of the supplier. The culture medium, RPMI-1640, was supplemented with 10 μL/mL glutamine, 2 μL/mL gentamicin and 10% foetal bovine serum (FBS) to make complete growth medium (CGM). The cells were incubated at 37 °C in a humidified atmosphere with 5% CO2. Passaging was conducted every 2 - 4 days to maintain a cell density below 2.5×10^6 cells/mL, and thus ensure a continuous proliferation. Cells were allowed to acclimatise for two weeks after establishment before they were utilised for experimental purposes and discarded after three months. […] Resazurin was metabolized for 1-2 h (37° C., 5% CO2) before fluorescence was read at 544 nm excitation and 590 nm emission wavelength (BioTek Synergy HT). […] Statistical significance between treatments were determined using Welch's ANOVA with Tamhane's T2 correction for multiple comparisons, p<0.05 was considered statistically significant. […] The combination index was calculated using: [formula] • where CI is the combination index, EA represent the effect of drug A given as a monotherapy, EB represent the effect of drug B given as a monotherapy and EAB represent drugs A and B given in combination at the same concentrations as the monotherapies. […]

IC50 (MDA-MB-436 cells; Homo sapiens)	SMILES	viability at 5 µM (MDA-MB-436 cells; Homo sapiens, 72 h, Cmpd 2 5 μM alone, MDA-MB-436, relative to untreated control set to 100%)	viability at 6.5 µM (MDA-MB-436 cells; Homo sapiens, 72 h, Cmpd 2 6.5 μM alone, MDA-MB-436, relative to untreated control set to 100%)	viability at 7.5 µM (MDA-MB-436 cells; Homo sapiens, 72 h, Cmpd 2 7.5 μM alone, MDA-MB-436, relative to untreated control set to 100%)	viability at 10 µM (MDA-MB-436 cells; Homo sapiens, 72 h, Cmpd 2 10 μM alone, MDA-MB-436, relative to untreated control set to 100%)	concentration at which viability was reduced significantly compared to the untreated control (MDA-MB-436 cells; MDA-MB-436, 72 h, control set to 100% viability)	expected inhibition (CCRF-CEM cells)	viability at 0.4 µM (MDA-MB-436 cells; Homo sapiens, 72 h, BKM120 0.4 μM alone, MDA-MB-436, relative to untreated control set to 100%)	viability at 1.1 µM (MDA-MB-436 cells; Homo sapiens, 72 h, BKM120 1.1 μM alone, MDA-MB-436, relative to untreated control set to 100%)
10.4 µM	CCCCCCCOc1ccc(OCC(=O)c2nc(C(=O)OC)cs2)cc1 [Compound 2]	92 ± 3%	82 ± 6%	76 ± 4%	60 ± 10%	≥ 9 µM	–	–	–
1.2 µM	Nc1cc(C(F)(F)F)c(-c2cc(N3CCOCC3)nc(N3CCOCC3)n2)cn1 [BKM120, buparlisib, reference compound]	–	–	–	–	–	10%	84 ± 7%	45 ± 10%
